{
  "source": "patent US20050244486A1",
  "about": "“Topical methadone compositions and methods for using the same” (priority 2004, published 2005)",
  "key": {"[1]": {"test": "Solubility of methadone in different solvents", "format": "physicochemical", "experimental": "In this experiment, the solubility of methadone in a number of different solvents was evaluated. The solvents evaluated were mineral oil, N-methyl-2-pyrrolidone, diisopropyl adipate, DEET, PEG, Di (propylene glycol), dehydrated alcohol and water. […] The stability of the solutions was also evaluated."}, "[2]": {"test": "Study 1: concentrations of methadone in rat plasma, topical administration versus intravenous injection", "format": "in vivo", "experimental": "The test article was administered intravenously (IV) through the tail vein to animals in Group A. The injection was performed slowly. A gauze pad (1×1 cm) Saturated with 0.2 mL of the appropriate test article was applied to the clipped site on the back of the animals in Groups 2 and 3. The gauze pad was secured by occlusive tape. The animal was wrapped in gauze, which was held in place with Zonas porous tape.\nBlood Collection: Blood (0.5 mL) was collected into sodium heparin tubes at the appropriate time points. The samples were centrifuged at approximately 2800 rpm at 2-8 degrees Celsius for approximately 15 minutes. Plasma was collected."}},
  "note": "Several values for one entry are separate records, joined by “and”; a condition that tells them apart may be missing. Equal values may be shown once.",
  "data": [
    {"smiles": "CCC(=O)C(CC(C)N(C)C)(c1ccccc1)c1ccccc1", "note": "(centres unmarked) [Methadone, 6-dimethylamino-4,4-diphenyl-3-hepatone]", "values": [
      {"measurement": "solubility at 3 h", "setting": "[1]; oil or lipid, Mineral oil, 3 hour", "result": 39.9, "unit": "mg/mL"},
      {"measurement": "solubility at 6 h", "setting": "[1]; oil or lipid, Mineral oil, 6 hour", "result": 37.2, "unit": "mg/mL"},
      {"measurement": "solubility at 24 h", "setting": "[1]; oil or lipid, Mineral oil, 24 hour", "result": 40.4, "unit": "mg/mL"},
      {"measurement": "solubility at 48 h", "setting": "[1]; oil or lipid, Mineral oil, 48 hour", "result": 40.4, "unit": "mg/mL"},
      {"measurement": "solubility at 3 h", "setting": "[1]; organic solvent or mixture, thermodynamic from solid, diisopropyl adipate, 3 hour", "result": 343, "unit": "mg/mL"},
      {"measurement": "solubility at 6 h", "setting": "[1]; organic solvent or mixture, thermodynamic from solid, diisopropyl adipate, 6 hour", "result": 345, "unit": "mg/mL"},
      {"measurement": "solubility at 48 h", "setting": "[1]; organic solvent or mixture, thermodynamic from solid, diisopropyl adipate, 48 hour", "result": 324, "unit": "mg/mL"},
      {"measurement": "solubility at 3 h", "setting": "[1]; organic solvent or mixture, DEET (97%), 3 hour", "result": 124, "unit": "mg/mL"},
      {"measurement": "solubility at 6 h", "setting": "[1]; organic solvent or mixture, DEET (97%), 6 hour", "result": 125, "unit": "mg/mL"},
      {"measurement": "solubility at 24 h", "setting": "[1]; organic solvent or mixture, DEET (97%), 24 hour", "result": 137, "unit": "mg/mL"},
      {"measurement": "solubility at 48 h", "setting": "[1]; organic solvent or mixture, DEET (97%), 48 hour", "result": 132, "unit": "mg/mL"},
      {"measurement": "solubility at 3 h", "setting": "[1]; organic solvent or mixture, Dehydrated Alcohol, 3 hour", "result": 114, "unit": "mg/mL"},
      {"measurement": "solubility at 6 h", "setting": "[1]; organic solvent or mixture, Dehydrated Alcohol, 6 hour", "result": 113, "unit": "mg/mL"},
      {"measurement": "solubility at 24 h", "setting": "[1]; organic solvent or mixture, Dehydrated Alcohol, 24 hour", "result": 115, "unit": "mg/mL"},
      {"measurement": "solubility at 48 h", "setting": "[1]; organic solvent or mixture, Dehydrated Alcohol, 48 hour", "result": 118, "unit": "mg/mL"},
      {"measurement": "solubility at 3 h", "setting": "[1]; organic solvent or mixture, Di(propylene glycol), 3 hour", "result": 56.2, "unit": "mg/mL"},
      {"measurement": "solubility at 6 h", "setting": "[1]; organic solvent or mixture, Di(propylene glycol), 6 hour", "result": 56.5, "unit": "mg/mL"},
      {"measurement": "solubility at 24 h", "setting": "[1]; organic solvent or mixture, Di(propylene glycol), 24 hour", "result": 54.9, "unit": "mg/mL"},
      {"measurement": "solubility at 48 h", "setting": "[1]; organic solvent or mixture, Di(propylene glycol), 48 hour", "result": 58.7, "unit": "mg/mL"},
      {"measurement": "solubility at 3 h", "setting": "[1]; organic solvent or mixture, N-methyl-2-pyrrolidone, 3 hour", "result": 262, "unit": "mg/mL"},
      {"measurement": "solubility at 6 h", "setting": "[1]; organic solvent or mixture, N-methyl-2-pyrrolidone, 6 hour", "result": 270, "unit": "mg/mL"},
      {"measurement": "solubility at 24 h", "setting": "[1]; organic solvent or mixture, N-methyl-2-pyrrolidone, 24 hour", "result": 347, "unit": "mg/mL"},
      {"measurement": "solubility at 48 h", "setting": "[1]; organic solvent or mixture, N-methyl-2-pyrrolidone, 48 hour", "result": 342, "unit": "mg/mL"},
      {"measurement": "solubility at 3 h", "setting": "[1]; organic solvent or mixture, PEG - 400, 3 hour", "result": 39.7, "unit": "mg/mL"},
      {"measurement": "solubility at 6 h", "setting": "[1]; organic solvent or mixture, PEG - 400, 6 hour", "result": 39.9, "unit": "mg/mL"},
      {"measurement": "solubility at 24 h", "setting": "[1]; organic solvent or mixture, PEG - 400, 24 hour", "result": 38.8, "unit": "mg/mL"},
      {"measurement": "solubility at 48 h", "setting": "[1]; organic solvent or mixture, PEG - 400, 48 hour", "result": 36.8, "unit": "mg/mL"},
      {"measurement": "solubility at 24 h", "setting": "[1]; organic solvent or mixture, diisopropyl adipate, 24 hour", "result": 360, "unit": "mg/mL"},
      {"measurement": "solubility at 3 h", "setting": "[1]; thermodynamic from solid, water, 3 hour", "result": 0.217, "unit": "mg/mL"},
      {"measurement": "solubility at 6 h", "setting": "[1]; thermodynamic from solid, water, 6 hour", "result": 0.228, "unit": "mg/mL"},
      {"measurement": "solubility at 24 h", "setting": "[1]; thermodynamic from solid, water, 24 hour", "result": 0.224, "unit": "mg/mL"},
      {"measurement": "solubility at 48 h", "setting": "[1]; thermodynamic from solid, water, 48 hour", "result": 0.225, "unit": "mg/mL"},
      {"measurement": "Irritation of rat skin by topical application", "setting": "[2]; Study 1, topical methadone solutions on rat skin over the application time", "result": "non-irritating"},
      {"measurement": "Concentrations of Methadone in Rat Plasma Samples", "setting": "[2]; Study 1 Group A: I.V. tail vein, 0.25 mL Test Article 1 (0.5 mg/mL Methadone-Saline Solution), 2 min, individual rats A1-A3", "result": "67.8 ng/mL and 69.5 ng/mL"},
      {"measurement": "Concentrations of Methadone in Rat Plasma Samples", "setting": "[2]; Study 1 Group A: I.V. tail vein, 0.25 mL Test Article 1 (0.5 mg/mL Methadone-Saline Solution), 5 min, individual rats A1-A3", "result": "68.9 ng/mL and 56.0 ng/mL"},
      {"measurement": "Concentrations of Methadone in Rat Plasma Samples", "setting": "[2]; Study 1 Group A: I.V. tail vein, 0.25 mL Test Article 1 (0.5 mg/mL Methadone-Saline Solution), 10 min, individual rats A1-A3", "result": "57.6 ng/mL and 42.3 ng/mL"},
      {"measurement": "Concentrations of Methadone in Rat Plasma Samples", "setting": "[2]; Study 1 Group A: I.V. tail vein, 0.25 mL Test Article 1 (0.5 mg/mL Methadone-Saline Solution), 30 min, individual rats A1-A3", "result": "30.9 ng/mL and 35.8 ng/mL"},
      {"measurement": "Concentrations of Methadone in Rat Plasma Samples", "setting": "[2]; Study 1 Group A: I.V. tail vein, 0.25 mL Test Article 1 (0.5 mg/mL Methadone-Saline Solution), 60 min, individual rats A1-A3", "result": "24.5 ng/mL and 22.7 ng/mL"},
      {"measurement": "Concentrations of Methadone in Rat Plasma Samples", "setting": "[2]; Study 1 Group B: topical dorsal flank, 1 × 1 cm gauze pad with 0.2 mL Test Article 2 (Methadone-Diisopropyl Adipate Solution 23.9%), 10 min, individual rats B1-B3", "result": "BQL (below quantification limit (1.00 ng/mL))"},
      {"measurement": "Concentrations of Methadone in Rat Plasma Samples", "setting": "[2]; Study 1 Group B: topical dorsal flank, 1 × 1 cm gauze pad with 0.2 mL Test Article 2 (Methadone-Diisopropyl Adipate Solution 23.9%), 20 min, individual rats B1-B3", "result": "3.25 ng/mL and 3.18 ng/mL"},
      {"measurement": "Concentrations of Methadone in Rat Plasma Samples", "setting": "[2]; Study 1 Group B: topical dorsal flank, 1 × 1 cm gauze pad with 0.2 mL Test Article 2 (Methadone-Diisopropyl Adipate Solution 23.9%), 45 min, individual rats B1-B3", "result": "10.4 ng/mL and 7.24 ng/mL"},
      {"measurement": "Concentrations of Methadone in Rat Plasma Samples", "setting": "[2]; Study 1 Group B: topical dorsal flank, 1 × 1 cm gauze pad with 0.2 mL Test Article 2 (Methadone-Diisopropyl Adipate Solution 23.9%), 60 min, individual rats B1-B3", "result": "15.1 ng/mL and 12.4 ng/mL"},
      {"measurement": "Concentrations of Methadone in Rat Plasma Samples", "setting": "[2]; Study 1 Group B: topical dorsal flank, 1 × 1 cm gauze pad with 0.2 mL Test Article 2 (Methadone-Diisopropyl Adipate Solution 23.9%), 120 min, individual rats B1-B3", "result": "44.1 ng/mL and 57.8 ng/mL and 26.2 ng/mL"},
      {"measurement": "Concentrations of Methadone in Rat Plasma Samples", "setting": "[2]; Study 1 Group C: topical dorsal flank, 1 × 1 cm gauze pad with 0.2 mL Test Article 3 (Methadone-DEET Solution 10%), 10 min, individual rats C1-C3", "result": "BQL (below quantification limit (1.00 ng/mL))"},
      {"measurement": "Concentrations of Methadone in Rat Plasma Samples", "setting": "[2]; Study 1 Group C: topical dorsal flank, 1 × 1 cm gauze pad with 0.2 mL Test Article 3 (Methadone-DEET Solution 10%), 20 min, individual rats C1-C3", "result": "BQL (below quantification limit (1.00 ng/mL))"},
      {"measurement": "Concentrations of Methadone in Rat Plasma Samples", "setting": "[2]; Study 1 Group C: topical dorsal flank, 1 × 1 cm gauze pad with 0.2 mL Test Article 3 (Methadone-DEET Solution 10%), 45 min, individual rats C1-C3", "result": "2.66 ng/mL and 2.84 ng/mL"},
      {"measurement": "Concentrations of Methadone in Rat Plasma Samples", "setting": "[2]; Study 1 Group C: topical dorsal flank, 1 × 1 cm gauze pad with 0.2 mL Test Article 3 (Methadone-DEET Solution 10%), 60 min, individual rats C1-C3", "result": "3.27 ng/mL and 4.16 ng/mL"},
      {"measurement": "Concentrations of Methadone in Rat Plasma Samples", "setting": "[2]; Study 1 Group C: topical dorsal flank, 1 × 1 cm gauze pad with 0.2 mL Test Article 3 (Methadone-DEET Solution 10%), 120 min, individual rats C1-C3", "result": "6.22 ng/mL and 5.97 ng/mL"},
      {"measurement": "concentration at 45 min", "setting": "[2]; rat, in vivo, 0.2 mL of 10% methadone solution, Study 1 Group C: topical dorsal flank, 1 × 1 cm gauze pad with 0.2 mL Test Article 3 (Methadone-DEET Solution 10%), 45 min, individual rats C1-C3, read-out: Concentrations of Methadone in Rat Plasma Samples", "result": 3.83, "unit": "ng/mL"},
      {"measurement": "concentration at 60 min", "setting": "[2]; rat, in vivo, 0.2 mL of 10% methadone solution, Study 1 Group C: topical dorsal flank, 1 × 1 cm gauze pad with 0.2 mL Test Article 3 (Methadone-DEET Solution 10%), 60 min, individual rats C1-C3, read-out: Concentrations of Methadone in Rat Plasma Samples", "result": 3.88, "unit": "ng/mL"}
    ]}
  ]
}
